Data taken from ChEMBL document CHEMBL1201862, “PubChem BioAssay data set” (2004).
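Growth conditions: 96-well plates. Treatment: test compound, 48 hours, 5 concentrations. Analysis: linear interpolation between bracketing concentrations; unreached endpoints set to highest concentration. Here, GI50 denotes the concentration required for 50% inhibition of growth.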 Activity calls are given as the source filed them. No stated cut-off is given here; in the data, active = GI50 up to about 1.1 µM and inactive = higher.

Key:
Assay in all cases: NCI anticancer screen, dose series, 48 h
SK-MEL-28 = test system: SK-MEL-28
SK-MEL-2 = test system: SK-MEL-2
SR = test system: SR
HOP-62 = test system: HOP-62
RPMI-8226 = test system: RPMI-8226
RXF 393 = test system: RXF 393
SK-MEL-5 = test system: SK-MEL-5
NCI-H522 = test system: NCI-H522
NCI-H460 = test system: NCI-H460
786-0 = test system: 786-0
HCC 2998 = test system: HCC 2998
ACHN = test system: ACHN
A549 = test system: A549
HT-29 = test system: HT-29
HL-60 = test system: HL-60
SF-539 = test system: SF-539
OVCAR-5 = test system: OVCAR-5
IGROV-1 = test system: IGROV-1
HCT-116 = test system: HCT-116

SMILES	GI50 (SK-MEL-28)	GI50 (SK-MEL-2)	GI50 (SR)	GI50 (HOP-62)	GI50 (RPMI-8226)	GI50 (RXF 393)	GI50 (SK-MEL-5)	GI50 (NCI-H522)	GI50 (NCI-H460)	GI50 (786-0)	GI50 (HCC 2998)	GI50 (ACHN)	GI50 (A549)	GI50 (HT-29)	GI50 (HL-60)	GI50 (SF-539)	GI50 (OVCAR-5)	GI50 (IGROV-1)	GI50 (HCT-116)
Clc1cc(OCc2nn3c(Cc4ccccc4)nnc3s2)ccc1OCc1nn2c(Cc3ccccc3)nnc2s1	42.2 µM (inactive)	> 100 µM (inactive)	35 µM (inactive)	31.8 µM (inactive)	49.7 µM (inactive)	27.7 µM (inactive)	25.4 µM (inactive)	50.1 µM (inactive)	65.8 µM (inactive)	19.5 µM (inactive)	44.1 µM (inactive)	24.2 µM (inactive)	32.2 µM (inactive)	79.1 µM (inactive)	50.2 µM (inactive)	16.2 µM (inactive)	51.5 µM (inactive)	30.6 µM (inactive)	53.5 µM (inactive)
O=C1C=CC(=O)N1c1ccc2c(c1)Cc1cc(NC(=O)C(F)(F)F)ccc1-2	18.1 µM (inactive)	18.4 µM (inactive)	2.74 µM (inactive)	20.1 µM (inactive)	2.9 µM (inactive)	5.66 µM (inactive)	47 µM (inactive)	5.09 µM (inactive)	> 100 µM (inactive)	5.58 µM (inactive)	> 45.2 µM (inactive)	4.43 µM (inactive)	17.9 µM (inactive)	10.2 µM (inactive)	12.2 µM (inactive)	18 µM (inactive)	16.7 µM (inactive)	16.6 µM (inactive)	7.36 µM (inactive)
CN(/N=C/c1ccccn1)C1=NCCCN1	> 100 µM (inactive)	> 100 µM (inactive)	> 100 µM (inactive)	> 100 µM (inactive)	> 100 µM (inactive)	> 100 µM (inactive)	> 100 µM (inactive)	> 100 µM (inactive)	> 100 µM (inactive)	> 100 µM (inactive)	> 100 µM (inactive)	> 100 µM (inactive)	> 100 µM (inactive)	> 100 µM (inactive)	> 100 µM (inactive)	> 100 µM (inactive)	> 100 µM (inactive)	> 100 µM (inactive)	> 100 µM (inactive)
CC(=O)OCC1OC(OC(C)=O)C(Nc2ncc(-c3ccc(C)cc3)s2)C(OC(C)=O)C1OC(C)=O (stereo unspecified)	17.4 µM (inactive)	22.6 µM (inactive)	26.4 µM (inactive)	20.4 µM (inactive)	12.9 µM (inactive)	16.1 µM (inactive)	15.8 µM (inactive)	15.7 µM (inactive)	18.5 µM (inactive)	16.6 µM (inactive)	29.7 µM (inactive)	14.6 µM (inactive)	18.6 µM (inactive)	21.2 µM (inactive)	> 10 µM (inactive)	20.7 µM (inactive)	43.1 µM (inactive)	17.3 µM (inactive)	16.4 µM (inactive)
[O-]c1c2cc(-[n+]3c(-c4ccccc4)cc(-c4ccccc4)cc3-c3ccccc3)cc1CO[C@@H](c1ccccc1)[C@H](c1ccccc1)OCCOCCO[C@@H](c1ccccc1)[C@H](c1ccccc1)OC2	0.475 µM (active)	0.0394 µM (active)	0.0309 µM (active)	0.129 µM (active)	0.0176 µM (active)	0.108 µM (active)	0.03 µM (active)	0.0264 µM (active)	0.0363 µM (active)	0.0448 µM (active)	0.181 µM (active)	0.167 µM (active)	0.0451 µM (active)	0.0386 µM (active)	0.0204 µM (active)	0.408 µM (active)	0.453 µM (active)	0.0455 µM (active)	0.0362 µM (active)
CCC(O)c1ccc(/N=C/c2ccccc2O)cc1 (stereo unspecified)	> 100 µM (inactive)	> 100 µM (inactive)	90.2 µM (inactive)	> 100 µM (inactive)	> 100 µM (inactive)	> 100 µM (inactive)	> 100 µM (inactive)	> 100 µM (inactive)	> 100 µM (inactive)	> 100 µM (inactive)	> 100 µM (inactive)	> 100 µM (inactive)	> 100 µM (inactive)	> 100 µM (inactive)	> 100 µM (inactive)	> 100 µM (inactive)	> 100 µM (inactive)	> 100 µM (inactive)	74.1 µM (inactive)
COc1cc(C2c3cc4c(cc3OC(N3CCOCC3)C2C)OCO4)cc(OC)c1OC (stereo unspecified)	17.2 µM (inactive)	2.02 µM (inactive)	0.466 µM (active)	3.63 µM (inactive)	0.778 µM (active)	0.282 µM (active)	0.378 µM (active)	0.614 µM (active)	1.34 µM (inactive)	3.18 µM (inactive)	1.23 µM (inactive)	3.85 µM (inactive)	1.56 µM (inactive)	0.237 µM (active)	0.412 µM (active)	0.462 µM (active)	3.68 µM (inactive)	1.31 µM (inactive)	0.65 µM (active)
O=c1ccc2c(Cl)cccc2o1	> 100 µM (inactive)	> 100 µM (inactive)	> 100 µM (inactive)	> 100 µM (inactive)	> 100 µM (inactive)	> 100 µM (inactive)	> 100 µM (inactive)	> 100 µM (inactive)	> 100 µM (inactive)	> 10 µM (inactive)	3.74 µM (inactive)	> 100 µM (inactive)	> 100 µM (inactive)	> 10 µM (inactive)	> 100 µM (inactive)	> 100 µM (inactive)	> 100 µM (inactive)	> 100 µM (inactive)	> 100 µM (inactive)
CC(Oc1ccccc1Cl)C(=O)NN1C(=O)CC(=O)N(c2ccc(Cl)cc2)C1=S (stereo unspecified)	94.6 µM (inactive)	27.9 µM (inactive)	8.77 µM (inactive)	46.3 µM (inactive)	33.2 µM (inactive)	30 µM (inactive)	36 µM (inactive)	23.3 µM (inactive)	39.3 µM (inactive)	40.8 µM (inactive)	50.9 µM (inactive)	37.4 µM (inactive)	36.5 µM (inactive)	47.8 µM (inactive)	3.21 µM (inactive)	75.5 µM (inactive)	75.3 µM (inactive)	50.1 µM (inactive)	32.1 µM (inactive)
COc1ccc(C(O)c2nccn2C)c(OC)c1 (stereo unspecified)	> 100 µM (inactive)	> 100 µM (inactive)	> 100 µM (inactive)	> 100 µM (inactive)	> 100 µM (inactive)	> 100 µM (inactive)	86.3 µM (inactive)	> 100 µM (inactive)	> 100 µM (inactive)	> 100 µM (inactive)	> 100 µM (inactive)	> 100 µM (inactive)	> 100 µM (inactive)	> 100 µM (inactive)	> 100 µM (inactive)	> 100 µM (inactive)	> 100 µM (inactive)	> 100 µM (inactive)	> 100 µM (inactive)
COc1ccc(CCN2CCOCC2)cc1	> 100 µM (inactive)	> 100 µM (inactive)	> 100 µM (inactive)	> 100 µM (inactive)	> 100 µM (inactive)	> 100 µM (inactive)	> 100 µM (inactive)	> 100 µM (inactive)	> 100 µM (inactive)	> 100 µM (inactive)	> 100 µM (inactive)	> 100 µM (inactive)	> 100 µM (inactive)	> 100 µM (inactive)	> 100 µM (inactive)	> 100 µM (inactive)	> 100 µM (inactive)	> 100 µM (inactive)	> 100 µM (inactive)
N#Cc1c(N2CCCC2)nsc1NCc1ccccc1	> 100 µM (inactive)	> 100 µM (inactive)	> 100 µM (inactive)	> 100 µM (inactive)	> 100 µM (inactive)	15 µM (inactive)	> 100 µM (inactive)	> 100 µM (inactive)	> 100 µM (inactive)	> 100 µM (inactive)	> 100 µM (inactive)	91 µM (inactive)	> 100 µM (inactive)	> 100 µM (inactive)	> 100 µM (inactive)	> 100 µM (inactive)	> 100 µM (inactive)	> 100 µM (inactive)	> 100 µM (inactive)
COc1ccc(C2SC(=N)Nc3c2c(C)nn3C(=O)c2ccc(Cl)cc2)cc1OC (stereo unspecified)	> 10 µM (inactive)	> 10 µM (inactive)	> 10 µM (inactive)	> 10 µM (inactive)	> 10 µM (inactive)	> 10 µM (inactive)	> 10 µM (inactive)	> 10 µM (inactive)	> 10 µM (inactive)	> 10 µM (inactive)	> 10 µM (inactive)	> 10 µM (inactive)	> 10 µM (inactive)	> 10 µM (inactive)	> 10 µM (inactive)	> 10 µM (inactive)	> 10 µM (inactive)	> 10 µM (inactive)	> 10 µM (inactive)
CC(NC(=O)c1ccc(OP(=O)(OCc2ccc([N+](=O)[O-])o2)N(C)CCCCCl)cc1)c1ccc(OCC2CCCCC2)c(C(N)=O)c1 (stereo unspecified)	2.3 µM (inactive)	3.05 µM (inactive)	1.73 µM (inactive)	7.05 µM (inactive)	1.03 µM (active)	2.25 µM (inactive)	1.66 µM (inactive)	2.38 µM (inactive)	3.27 µM (inactive)	4.32 µM (inactive)	3.14 µM (inactive)	3.93 µM (inactive)	2.7 µM (inactive)	2.63 µM (inactive)	3.33 µM (inactive)	2.56 µM (inactive)	15.2 µM (inactive)	2.75 µM (inactive)	2.88 µM (inactive)
